Laboratory results as given in the NIST ThermoML archive (doi:10.1016/j.jct.2015.01.014).
± gives the expanded uncertainty stated by the source.

Conditions: Liquid, Transpiration method

OCCCO [propan-1,3-diol]
Conditions | vapor or sublimation pressure [kPa]
292.5 K | 0.00167 ± 0.00012
296.4 K | 0.00239 ± 0.00015
300.4 K | 0.00346 ± 0.00023
306.3 K | 0.00584 ± 0.00041
338.7 K | 0.08145 ± 0.0052
344.3 K | 0.1208 ± 0.0077
346.4 K | 0.139 ± 0.0087
